Data reported in patent US20200216439A1, “HETERO-1,5,6,7-TETRAHYDRO-4H-INDOL-4-ONES” (BAYER PHARMA AKTIENGESELLSCHAFT, priority 2015, published 2020).

molecular target: T1, catalytic domain of human Bub1 (amino acids 704-1085) (Homo sapiens, UniProt O43683); experiment: Bub1 kinase assay (TR-FRET); format: biochemical; conditions: TR-FRET; ATP 10 μM, peptide substrate 1 μM; 60 min at 22° C.; average or median if tested more than once; read-out: Inhibition of Bub1 kinase IC50
T1 construct: catalytic domain of human Bub1 (amino acids 704-1085); His6 (N); made in house; host or cells: Hi5 insect cells
T1 sequence (O43683 704-1085): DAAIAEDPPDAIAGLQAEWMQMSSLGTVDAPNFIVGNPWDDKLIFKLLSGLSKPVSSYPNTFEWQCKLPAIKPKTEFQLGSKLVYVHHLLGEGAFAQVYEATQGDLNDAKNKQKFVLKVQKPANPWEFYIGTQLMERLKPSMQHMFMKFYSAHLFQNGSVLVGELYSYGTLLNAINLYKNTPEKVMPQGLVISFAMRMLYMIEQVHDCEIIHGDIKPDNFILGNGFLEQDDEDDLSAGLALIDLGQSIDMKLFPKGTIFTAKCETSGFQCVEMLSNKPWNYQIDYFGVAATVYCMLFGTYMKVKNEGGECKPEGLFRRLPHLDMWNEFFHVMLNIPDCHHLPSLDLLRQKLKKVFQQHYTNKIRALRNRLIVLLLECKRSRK
How it was run: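 Human Bub1 catalytic domain (704-1085, His6-tagged, Hi5-expressed, ~200 ng/mL) preincubated with compound 15 min at 22 °C, then reacted 60 min at 22 °C with 10 μM ATP and 1 μM biotinylated peptide substrate, pH 7.5. EDTA stop; TR-FRET 665/620 ratio; IC50 from 4-parameter fit, 11 concentrations in duplicate.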

SMILES	IC50 [nM]
CC(C)(C)OC(=O)N1CC(=O)c2c([nH]c(-c3ccnc(NC(=O)C4(F)CC4)c3)c2Nc2ccccc2)C1 [Example 131, tert-Butyl 3-anilino-2-{2-([(1-fluorocyclopropyl)carbonyl]amino}pyridin-4-yl)-4-oxo-1,4,5,7-tetrahydro-6H-pyrrolo[2,3-c]pyridine-6-carboxylate]	23
O=C1CNCc2[nH]c(-c3ccnc(NC(=O)C4(F)CC4)c3)c(Nc3ccccc3)c21 [Example 132, N-[4-(3-anilino-4-oxo-4,5,6,7-tetrahydro-1H-pyrrolo[2,3-c]pyridin-2-yl)pyridin-2-yl]-1-fluorocyclopropanecarboxamide]	299
CC(C)(C)OC(=O)N1CC(=O)c2c([nH]c(-c3ccnc(NC(=O)c4ccc(F)cc4)c3)c2Nc2ccccc2)C1 [Example 133, tert-Butyl 3-anilino-2-{2-[(4-fluorobenzoyl)amino]pyridin-4-yl}-4-oxo-1,4,5,7-tetrahydro-6H-pyrrolo[2,3-c]pyridine-6-carboxylate]	28
O=C(Nc1cc(-c2[nH]c3c(c2Nc2ccccc2)C(=O)CNC3)ccn1)c1ccc(F)cc1 [Example 134, N-[4-(3-anilino-4-oxo-4,5,6,7-tetrahydro-1H-pyrrolo[2,3-c]pyridin-2-yl)pyridin-2-yl]-4-fluorobenzamide]	36
COc1cc(C(=O)Nc2cc(-c3[nH]c4c(c3Nc3ccccc3)C(=O)COC4)ccn2)ccc1F [Example 140, N-[4-(3-Anilino-4-oxo-1,4,5,7-tetrahydropyrano[3,4-b]pyrrol-2-yl)pyridin-2-yl]-4-fluoro-3-methoxybenzamide]	31
COC(=O)N1CC(=O)c2c([nH]c(-c3ccnc(NC(=O)[C@H]4C[C@H]4F)c3)c2Nc2ccccc2)C1 [Example 141, Methyl 3-anilino-2-[2-({[(1R,2R)-2-fluorocyclopropyl]carbonyl}amino)pyridin-4-yl]-4-oxo-1,4,5,7-tetrahydro-6H-pyrrolo[2,3-c]pyridine-6-carboxylate]	7
COC(=O)N1CC(=O)c2c([nH]c(-c3ccnc(NC(=O)C(C)(C)F)c3)c2Nc2ccccc2)C1 [Example 144, Methyl 3-anilino-2-{2-[(2-fluoro-2-methylpropanoyl)amino]pyridin-4-yl}-4-oxo-1,4,5,7-tetrahydro-6H-pyrrolo[2,3-c]pyridine-6-carboxylate]	20
O=C(Nc1cc(-c2[nH]c3c(c2Nc2ccccc2)C(=O)COC3)ccn1)c1ccn[nH]1 [Example 145, N-[4-(3-Anilino-4-oxo-1,4,5,7-tetrahydropyrano[3,4-b]pyrrol-2-yl)pyridin-2-yl]-1H-pyrazole-5-carboxamide]	16
COC(=O)N1CC(=O)c2c([nH]c(-c3ccnc(NC(=O)C4(F)CC4)c3)c2Nc2ccccc2)C1 [Example 147, Methyl 3-anilino-2-{2-([(1-fluorocyclopropyl)carbonyl]amino}pyridin-4-yl)-4-oxo-1,4,5,7-tetrahydro-6H-pyrrolo[2,3-c]pyridine-6-carboxylate]	8
CN(C)CC(=O)Nc1cc(-c2[nH]c3c(c2Nc2ccccc2)C(=O)COC3)ccn1 [Example 153, N-[4-(3-Anilino-4-oxo-1,4,5,7-tetrahydropyrano[3,4-b]pyrrol-2-yl)pyridin-2-yl]-N^2,N^2-dimethylglycinamide]	510
O=C(Nc1cc(-c2[nH]c3c(c2Nc2ccccc2)C(=O)COC3)ccn1)c1ccc(F)c(F)c1 [Example 154, N-[4-(3-Anilino-4-oxo-1,4,5,7-tetrahydropyrano[3,4-b]pyrrol-2-yl)pyridin-2-yl]-3,4-difluorobenzamide]	19
CC(C)OC(=O)N1CC(=O)c2c([nH]c(-c3ccnc(NC(=O)C(C)(C)F)c3)c2Nc2ccccc2)C1 [Example 155, Isopropyl 3-anilino-2-{2-[(2-fluoro-2-methylpropanoyl)amino]pyridin-4-yl}-4-oxo-1,4,5,7-tetrahydro-6H-pyrrolo[2,3-c]pyridine-6-carboxylate]	60
CC(C)OC(=O)N1CC(=O)c2c([nH]c(-c3ccnc(NC(=O)c4cncs4)c3)c2Nc2ccccc2)C1 [Example 156, Isopropyl 3-anilino-4-oxo-2-{2-[(1,3-thiazol-5-ylcarbonyl)amino]pyridin-4-yl}-1,4,5,7-tetrahydro-6H-pyrrolo[2,3-c]pyridine-6-carboxylate]	12
O=C(Nc1cc(-c2[nH]c3c(c2Nc2ccccc2)C(=O)CN(S(=O)(=O)c2cnc[nH]2)C3)ccn1)c1ccc(F)cc1 [Example 160, N-{4-[3-Anilino-6-(1H-imidazol-5-ylsulfonyl)-4-oxo-4,5,6,7-tetrahydro-1H-pyrrolo[2,3-c]pyridin-2-yl]pyridin-2-yl}-4-fluorobenzamide]	4
O=C(Nc1cc(-c2[nH]c3c(c2Nc2ccccc2)C(=O)CN(S(=O)(=O)c2cnc[nH]2)C3)ccn1)c1cncs1 [Example 161, N-{4-[3-Anilino-6-(1H-imidazol-5-ylsulfonyl)-4-oxo-4,5,6,7-tetrahydro-1H-pyrrolo[2,3-c]pyridin-2-yl]pyridin-2-yl}-1,3-thiazole-5-carboxamide]	5
O=C1CN(S(=O)(=O)c2cnc[nH]2)Cc2[nH]c(-c3ccnc(NC(=O)C4(F)CC4)c3)c(Nc3ccccc3)c21 [Example 165, N-{4-[3-Anilino-6-(1H-imidazol-5-ylsulfonyl)-4-oxo-4,5,6,7-tetrahydro-1H-pyrrolo[2,3-c]pyridin-2-yl]pyridin-2-yl}-1-fluorocyclopropanecarboxamide]	14
CCN(CC)C(=O)N1CC(=O)c2c([nH]c(-c3ccnc(NC(C)=O)c3)c2Nc2ccccc2)C1 [Example 167, 2-(2-Acetamidopyridin-4-yl)-3-anilino-N,N-diethyl-4-oxo-1,4,5,7-tetrahydro-6H-pyrrolo[2,3-c]pyridine-6-carboxamide]	6
CNC(=O)N1CC(=O)c2c([nH]c(-c3ccnc(NC(C)=O)c3)c2Nc2ccccc2)C1 [Example 168, 2-(2-Acetamidopyridin-4-yl)-3-anilino-N-methyl-4-oxo-1,4,5,7-tetrahydro-6H-pyrrolo[2,3-c]pyridine-6-carboxamide]	5
CC(=O)Nc1cc(-c2[nH]c3c(c2Nc2ccccc2)C(=O)CN(S(=O)(=O)C(C)C)C3)ccn1 [Example 171, N-{4-[3-Anilino-6-(isopropylsulfonyl)-4-oxo-4,5,6,7-tetrahydro-1H-pyrrolo[2,3-c]pyridin-2-yl]pyridin-2-yl}acetamide]	3

Continued by falling IC50, values first:

IC50 [nM]	SMILES
437	CC(C)(O)C(=O)Nc1cc(-c2[nH]c3c(c2Nc2ccccc2)C(=O)COC3)ccn1 [Example 152, N-[4-(3-Anilino-4-oxo-1,4,5,7-tetrahydropyrano[3,4-b]pyrrol-2-yl)pyridin-2-yl]-2-hydroxy-2-methylpropanamide]
224	O=C1CNCc2[nH]c(-c3ccnc(NC(=O)[C@H]4C[C@H]4F)c3)c(Nc3ccccc3)c21 [Example 138, (1R,2R)—N-[4-(3-Anilino-4-oxo-4,5,6,7-tetrahydro-1H-pyrrolo[2,3-c]pyridin-2-yl)pyridin-2-yl]-2-fluorocyclopropanecarboxamide]
51	O=C(Nc1cc(-c2[nH]c3c(c2Nc2ccccc2)C(=O)CNC3)ccn1)c1cncs1 [Example 135]
38	CC(C)(F)C(=O)Nc1cc(-c2[nH]c3c(c2Nc2ccccc2)C(=O)CN(S(=O)(=O)c2cnc[nH]2)C3)ccn1 [Example 162, N-{4-[3-Anilino-6(1H-imidazol-5-ylsulfonyl)-4-oxo-4,5,6,7-tetrahydro-1H-pyrrolo[2,3-c]pyridin-2-yl]pyridin-2-yl}-2-fluoro-2-methylpropanamide]
22	CC(C)OC(=O)N1CC(=O)c2c([nH]c(-c3ccnc(NC(=O)C4(F)CC4)c3)c2Nc2ccccc2)C1 [Example 159, Isopropyl 3-anilino-2-{2-([(1-fluorocyclopropyl)carbonyl]amino}pyridin-4-yl)-4-oxo-1,4,5,7-tetrahydro-6H-pyrrolo[2,3-c]pyridine-6-carboxylate]
6	COC(=O)N1CC(=O)c2c([nH]c(-c3ccnc(NC(=O)[C@@H]4C[C@H]4F)c3)c2Nc2ccccc2)C1 [Example 143, Methyl 3-anilino-2-[2-({[(1S,2R)-2-fluorocyclopropyl]carbonyl}amino)pyridin-4-yl]-4-oxo-1,4,5,7-tetrahydro-6H-pyrrolo[2,3-c]pyridine-6-carboxylate]
5	CS(=O)(=O)N1CC(=O)c2c([nH]c(-c3ccnc(NC(=O)C4(F)CC4)c3)c2Nc2ccccc2)C1 [Example 150, N-{4-[3-Anilino-6(methylsulfonyl)-4-4-oxo-4,5,6,7-tetrahydro-1H-pyrrolo[2,3-c]pyridin-2-yl]pyridin-2-yl}-1-fluorocyclopropanecarboxamide]
5	CC(=O)Nc1cc(-c2[nH]c3c(c2Nc2ccccc2)C(=O)CN(C(=O)CC(F)(F)F)C3)ccn1 [Example 169, N-{4-[3-Anilino-4-oxo-6-(3,3,3-trifluoropropanoyl)-4,5,6,7-tetrahydro-1H-pyrrolo[2,3-c]pyridin-2-yl]pyridin-2-yl}acetamide]
5	CC(=O)Nc1cc(-c2[nH]c3c(c2Nc2ccccc2)C(=O)CN(C(=O)C(C)C)C3)ccn1 [Example 170, N-[4-(3-Anilino-6-isobutyryl-4-oxo-4,5,6,7-tetrahydro-1H-pyrrolo[2,3-c]pyridin-2-yl)pyridin-2-yl]acetamide]
4	CS(=O)(=O)N1CC(=O)c2c([nH]c(-c3ccnc(NC(=O)c4cncs4)c3)c2Nc2ccccc2)C1 [Example 151]
3	CC(=O)Nc1cc(-c2[nH]c3c(c2Nc2ccccc2)C(=O)CN(C(=O)N2CCCCC2)C3)ccn1 [Example 166, N-{4-[3-Anilino-4-oxo-6-(piperidin-1-ylcarbonyl)-4,5,6,7-tetrahydro-1H-pyrrolo[2,3-c]pyridin-2-yl]pyridin-2-yl}acetamide]
